In data set [1] the test system is periodontain. The data set is classed as biochemical, Porphyromonas gingivalis.
For data set [2], the system named is periodontain. As to the kind of experiment: Activation of periodontain by reducing agents and additives. The conditions noted are these: for Periodontain activity achieved with reducing agent: reducing agent at 0.1 mM concentration. The data set is classed as biochemical, Porphyromonas gingivalis.
In a further data set the test system is Rgp's. Conditions: cited from earlier work.
In another data set the target is Kgp (Porphyromonas gingivalis, UniProt B2RLK2). The conditions noted are these: cited from earlier work.
For data set [3], the system named is human α1-proteinase inhibitor.

Read-outs that look alike come from different tables or passages of the source. Peptide text beside a SMILES is read from it.

We go through 14 compounds from patent publication US6833262B1 (priority 1999, dated 2004).

Consider ethylenediaminetetra-acetate [EDTA], for which the “Percent Inhibition” value in the data set on periodontain [1] was found to be 0%. Consider `NC(=O)CI` [Idoacetamide], for which, in the data set on periodontain [1], the “Inhibition of periodontain (in words)” value is given as “readily inhibited” and the “Percent Inhibition” value was determined as 100%. Turning to `NCC(=O)NCC(=O)O` [glycyl-glycine] (H-Gly-Gly-OH), in the data set with periodontain [2] (data not shown), the “Stimulation of periodontain activity” value was “did not stimulate activity”. On to `CC(C)C[C@H](NC(=O)[C@H]1O[C@@H]1C(=O)O)C(=O)NCCCCN=C(N)N` (relative stereo) [E-64, L-trans-epoxysuccinyl-leucylamide-(4-guanidino)-butane], for which, in the data set on periodontain [1], the “Inhibition of periodontain (in words)” value is on record as “readily inhibited”. Moreover, in the data set on periodontain [1] (100 µM), the “Percent Inhibition” value was 100%. Further, the “Inhibition of Rgp's” value in the data set on Rgp's is “only weakly inhibited”. In addition, on Kgp, the “Inhibition of Kgp” value is “not inhibited”. For the compound `O[C@H](CS)[C@H](O)CS` (racemic) [DTT, dithiothreitol], in the data set with periodontain [2], the “Periodontain activity achieved with reducing agent” value is “full activity”. Regarding `NC(N)=NCCC[C@H](NC(=O)[C@@H]1CCCN1C(=O)[C@H](N)Cc1ccccc1)C(=O)CCl` [Phe—Pro—Arg chloromethyl ketone, Phe-Pro-Arg chloromethyl ketone], in the data set with periodontain [1], the “Inhibition of periodontain (in words)” value is “readily inhibited”. For the same compound, the “Percent Inhibition” value in the data set on periodontain [1] (10 µM) came to 96%.

For the compound `O=c1oc(Cl)c(Cl)c2ccccc12` [Dichloroisocoumarin, 3,4 dichloroisocoumarin], in the data set with periodontain [1], the “Inhibition of periodontain (in words)” value is “readily inhibited” and the “Percent Inhibition” value is listed as 2%. For calcium ions, the “Stabilizing effect on periodontain” value with periodontain [2] (data not shown) was “did not have a stabilizing effect”. With `CC(=O)N[C@@H](CC(C)C)C(=O)N[C@@H](CC(C)C)C(=O)N[C@H](C=O)CCCNC(=N)N` [Leupeptin], the “Inhibition of periodontain (in words)” value with periodontain [1] is reported as “readily inhibited”. Further, in the data set with periodontain [1] (50 µM), the “Percent Inhibition” value is 88%. On to `OCCS` [β-mercaptoethanol], for which the “Periodontain activity achieved with reducing agent” value with periodontain [2] is “full activity”. Turning to `N[C@@H](CS)C(=O)O` [free cysteine, cysteine], the “Periodontain activity achieved with reducing agent” value with periodontain [2] is “full activity”. Consider `NCCCC[C@H](NC(=O)[C@H](Cc1ccccc1)NC(=O)OCc1ccccc1)C(=O)COC(=O)c1ccccc1` [Z-Phe—Lys benzoyloxy methyl ketone, Z-Phe-Lys benzoyloxy methyl ketone], for which the “Inhibition of periodontain (in words)” value with periodontain [1] is on record as “readily inhibited”. Besides, the “Percent Inhibition” value in the data set with periodontain [1] (10 µM) is reported as 99%. For the compound “periodontain (mature native heterodimer purified from P. gingivalis HG66 culture fluid)”, the “hydrolysis of a synthetic pNA substrate” value in the data set with Phe-Leu-Glu-pNA is reported as “no hydrolysis was detected”. In data set [3], this compound had a Specific Activity (α1-PI inactivation assay, final TSK gel filtration step) of 368 units/mg. Take Tosyl-L-lysine chloromethyl ketone: in the data set on periodontain [1], the “Inhibition of periodontain (in words)” value is “readily inhibited” and the “Percent Inhibition” value is 91%.
